What was measured:
Format in all cases: cell-based
HaCaT keratinocytes [1] = assay: Intracellular carbonylated protein (CP) levels in HaCaT keratinocytes cultured with oleic acid (FTSC fluorescence); conditions: HaCaT keratinocytes cultured in DMEM containing oleic acid at several concentrations for 48 h; FIG. 1
Procedure: Protein carbonylation is initiated by reactive aldehyde compounds which are synthesized by lipid peroxidation. Since skin pores are always immersed by sebum, oleic acid which is one of the sebum components, is used as a source of intracellular synthesis of reactive aldehyde compounds to establish cells with accumulated carbonylated proteins.
Cell culture: HaCaT keratinocytes are cultured in Dulbeco's modified Eagle's medium (DMEM) (Nissui, Tokyo, Japan) supplemented with 5% fetal bovine serum (FBS) (Thermofisher, Waltham, Calif., USA) at 37° C. in 5% CO2 and 95% air.
For this example HaCaT keratinocytes are cultured in DMEM containing oleic acid at several concentrations for 48 h. After fixing with cold methanol for 5 min, cells are reacted with 20 μmol/L FTSC (Sigma-Aldrich, St. Louis, Mo., USA in 0.1 mol/L MES-Na buffer (pH 5.5) at room temperature for 1 h. Fluorescence intensities derived from CPs are measured at Ex/Em 492 nm/516 nm with a fluorescence microplate reader, TECAN SPARK 10M (Mannedorf, Switzerland). Numbers of cells are determined by measuring fluorescence intensities of nuclei stained with Hoechst 33342 (Sigma-Aldrich (St. Louis, Mo., USA)). Intracellular CP levels are calculated as fluorescence intensity of FTSC per fluorescence intensities of nuclei.

HaCaT keratinocytes [2] = assay: Protective effect against blue light induced carbonylated protein formation (SDS-PAGE, fluorescent labelling); conditions: 24 h, blue light 460 nm 35 J/cm^2, FIGS. 5 and 6
Procedure: (§1) HaCaT keratinocytes are cultured in calcium-free DMEM (Dulbecco's Modified Eagle Medium), with 10% SVF, at 37° C. and humid atmosphere, supplemented with 5% CO2 for 24 h.
(§2) After this initial time period the cell cultures are treated with the respective active compound. A non treated sample is used as reference.
(§3) The following active compounds are used in the above method: • Ectoin (Merck KGaA, Germany) 0.5% w/v dissolved in culture medium. • Ectoin (Merck KGaA, Germany) 0.3% w/v dissolved in culture medium • N-acetyl-cysteine (NAC) (Sigma-Aldrich) 2.5 mM, as internal reference
(§4) After a time period of 24 h, stress is induced in the samples by treatment with blue light irradiation (460 nm) or UVA irradiation (365 nm). In addition, samples not treated with an active compound are left non-irradiated for comparison.
Blue light irradiation (460 nm): • Source: LED • Irradiance: 53 mW/cm^2 • Dose: 35 J/cm^2 (corresponding to the emission of a computer screen during 8 h/d for 3 days) • Irradiation time: 11 min […]
(§5) In situ detection of carbonylated proteins: After thawing of the samples, protein extraction from cells is performed using OxiProteomics' validated protocols. Extracted proteins are solubilized and quantified by the Bradford method (Bradford, 1976, Anal. Biochem., 72, 248) using calibrated BSA as standard. […] Quantification is obtained from each sample, both for carbonylated and total proteins.

HaCaT keratinocytes [3] = assay: Protective effect against UVA induced carbonylated protein formation (SDS-PAGE, fluorescent labelling); conditions: 24 h, UVA 365 nm 33 J/cm^2, in comparison to the control, FIGS. 3 and 4
Procedure: as §1, §2, §3, §4
UVA irradiation (365 nm): • Source: LED • Irradiance: 50 mW/cm^2 • Dose: 33 J/cm^2 (i.e. less intense than 15 minutes at noon in the middle European sunlight) • Irradiation time: 11 min […]
as §5

HaCaT keratinocytes [4] = assay: Effect of ectoin on suppression of intracellular carbonylated protein accumulation induced by oleic acid; conditions: 100 mM ectoin pre-treatment for 24 h, then 200 μM oleic acid for 48 h; FIG. 2
Procedure: The effect of ectoin on carbonylated protein accumulation is analysed. In order to induce Hsp70, HaCaT keratinocytes are cultured with 100 mM ectoin (Merck KGaA, Germany) for 24 h. Cells are cultured with oleic acid for further 48 hours, and CP levels are determined. In this examination, 200 μM oleic acid is used to evaluate the effect of ectoin on CP accumulation in the cells. HaCaT keratinocytes are cultured in DMEM containing 5% FBS and 100 mM ectoin for 24 h. Cells are further cultured with DMEM containing 200 μM oleic acid for 48 h. After fixing with cold methanol for 5 min, cells are reacted with 20 μmol/L FTSC in 0.1 mol/L MES-Na buffer (pH 5.5) at room temperature for 1 h. Fluorescence intensities derived from CPs are measured at Ex/Em 492 nm/516 nm with a fluorescence microplate reader, TECAN SPARK 10M (Mannedorf, Switzerland). Numbers of cells are determined by measuring fluorescence intensities of nuclei stained with Hoechst 33342. Intracellular CP levels are calculated as fluorescence intensity of FTSC per fluorescence intensities of nuclei.

In the case of `CCCCCCCC/C=C\CCCCCCCC(=O)O` [oleic acid], the “level of intracellular CPs” value (HaCaT keratinocytes [1]) was “higher level of intracellular CPs”.
In the case of `CC1=N[C@H](C(=O)O)CCN1` [ectoin, (S)-1,4,5,6-tetrahydro-2-methyl-4-pyrimidincarboxylic acid], the “protective effect against blue light induced protein carbonylation” value (HaCaT keratinocytes [2]; ectoin 0.3% w/v) was “significant protective effect”, the “protective effect against blue light induced protein carbonylation” value (HaCaT keratinocytes [2]; ectoin 0.5% w/v) was “significant protective effect” and the “protective effect against UVA induced protein carbonylation” value (HaCaT keratinocytes [3]; ectoin 0.3% w/v) was “significant protective effect”. The “protective effect against UVA induced protein carbonylation” value (HaCaT keratinocytes [3]; ectoin 0.5% w/v) was “No significant comparison” and the “CP accumulation through oleic acid” value (HaCaT keratinocytes [4]) was “suppression of CP accumulation”.

From patent publication US20200030214A1, “USE OF COMPATIBLE SOLUTES” (MERCK PATENT GMBH, priority 2017, published 2020)
